# Source: patent US20240041042A1, “1-(PYRIDYL)-5-AZINYLPYRAZOLE DERIVATIVES, AND THEIR USE FOR CONTROL OF UNDESIRED PLANT GROWTH” (Bayer Aktiengesellschaft, priority 2020, published 2024)
# Like-named read-outs stand apart in the source and are kept apart here.
# Legend:
# Format in all cases: in vivo
# [1] = test system: Abutilon theophrasti (ABUTH); assay: Pre-emergence herbicidal action against ABUTH; conditions: 100% = plants have died
# Outline: (§1)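 Pre-emergence soil-surface spray, WP/EC formulation, 0.5% additive, 600 l/ha water, rates of 320 g/ha or lower. Greenhouse, ~3 wk. Visual score, % of untreated control (100% = plants dead, 0% = like control).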
# [2] = test system: Alopecurus myosuroides (ALOMY); assay: Pre-emergence herbicidal action against ALOMY; conditions: scored visually after about 3 weeks, 100% = plants have died
# Outline: as §1
# [3] = test system: Amaranthus retroflexus (AMARE); assay: Pre-emergence herbicidal action against AMARE; conditions: visual scoring after about 3 weeks vs untreated controls
# Outline: as §1
# [4] = test system: Avena fatua (AVEFA); assay: Pre-emergence herbicidal action against AVEFA; conditions: visual scoring after about 3 weeks vs untreated controls
# Outline: as §1
# [5] = test system: Echinochloa crus-galli (ECHCG); assay: Pre-emergence herbicidal action against ECHCG
# Outline: as §1
# [6] = test system: Lolium rigidum (LOLRI); assay: Pre-emergence herbicidal action against LOLRI
# Outline: as §1
# [7] = test system: Matricaria inodora (MATIN); assay: Pre-emergence herbicidal action against MATIN
# Outline: as §1
# [8] = test system: Pharbitis purpurea (PHBPU); assay: Pre-emergence herbicidal action against PHBPU; conditions: dosage 320 g/ha
# Outline: as §1
# [9] = test system: Polygonum convolvulus (POLCO); assay: Pre-emergence herbicidal action against POLCO
# Outline: as §1
# [10] = test system: Setaria viridis (SETVI); assay: Pre-emergence herbicidal action against SETVI
# Outline: as §1
# [11] = test system: Verconica persica (VERPE); assay: Pre-emergence herbicidal action against VERPE; conditions: dosage 320 g/ha
# Outline: as §1
# [12] = test system: Viola tricolor (VIOTR); assay: Pre-emergence herbicidal action against VIOTR
# Outline: as §1
# [13] = test system: Abutilon theophrasti (ABUTH); assay: Post-emergence herbicidal action against ABUTH; conditions: visual rating about 3 weeks after treatment vs untreated controls (100% = plants have died, 0% = like control plants)
# Outline: (§2)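 Rates were 320 g/ha or below, applied as aqueous WP/EC spray with 0.5% additive (600 l/ha) onto one-leaf-stage plants. About 3 weeks later in the greenhouse, damage was scored visually against untreated plants on a 0–100% scale, where 100% means plants died.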
# [14] = test system: Alopecurus myosuroides (ALOMY); assay: Post-emergence herbicidal action against ALOMY; conditions: visual rating about 3 weeks after treatment vs untreated controls (100% = plants have died, 0% = like control plants)
# Outline: as §2
# [15] = test system: Amaranthus retroflexus (AMARE); assay: Post-emergence herbicidal action against AMARE
# Outline: as §2
# [16] = test system: Avena fatua (AVEFA); assay: Post-emergence herbicidal action against AVEFA; conditions: visual rating about 3 weeks after treatment
# Outline: as §2
# [17] = test system: Echinochloa crus-galli (ECHCG); assay: Post-emergence herbicidal action against ECHCG
# Outline: as §2
# [18] = test system: Lolium rigidum (LOLRI); assay: Post-emergence herbicidal action against LOLRI
# Outline: as §2
# [19] = test system: Polygonum convolvulus (POLCO); assay: Post-emergence herbicidal action against POLCO
# Outline: as §2
# [20] = test system: Setaria viridis (SETVI); assay: Post-emergence herbicidal action against SETVI
# Outline: as §2
# [21] = test system: Verconica persica (VERPE); assay: Post-emergence herbicidal action against VERPE
# Outline: as §2
# [22] = test system: Viola tricolor (VIOTR); assay: Post-emergence herbicidal action against VIOTR
# Outline: as §2
# [23] = test system: Oryza sativa (ORYSA); conditions: crop plant compatibility, 80 g/ha, effect in comparison to untreated controls
# Outline: (§3)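 One-leaf-stage crops (2–3 wk post-sowing, sandy loam, greenhouse) sprayed on green parts; 0.5% additive, 600 l/ha water. Rated by eye ~3 wk later, % vs untreated; suffixes a/b/c mark different dosages.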
# [24] = test system: Triticum aestivum (TRZAS); conditions: crop plant compatibility, effect vs untreated controls
# Outline: as §3
# [25] = test system: Matricaria inodora (MATIN); assay: Post-emergence herbicidal action against MATIN; conditions: dosage 320 g/ha
# Outline: as §2
# [26] = test system: Pharbitis purpurea (PHBPU); assay: Post-emergence herbicidal action against PHBPU
# Outline: as §2
# [27] = test system: Zea mays (ZEAMX); conditions: crop plant compatibility, 80 g/ha, effect vs untreated controls
# Outline: as §3
# [28] = 80 g/ha, scored visually after about 3 weeks vs untreated controls, 0% = like control plants
# [29] = Dosage column 320 g/ha (title prints 3200 g/ha), scored visually after about 3 weeks
# [30] = 320 g/ha, visual rating about 3 weeks after treatment
compound,measurement,setting,value
CCOC(=O)COc1nn(-c2ccnc(Cl)c2)c(-c2ccc(F)nc2)c1Br [III-24],Pre-emergence action against ABUTH,[1]; [28],90%
same,Pre-emergence action against ABUTH,[1]; [29],100%
same,Pre-emergence action against ALOMY,[2]; 80 g/ha,100%
same,Pre-emergence action against ALOMY,[2]; 320 g/ha,100%
same,Pre-emergence action against AMARE in %,[3]; 80 g/ha,100%
same,Pre-emergence action against AMARE in %,[3]; 320 g/ha,100%
same,Pre-emergence action against AVEFA in %,[4]; 80 g/ha,100%
same,Pre-emergence action against AVEFA in %,[4]; 320 g/ha,100%
same,Pre-emergence action against ECHCG in %,[5]; dosage 80 g/ha,90%
same,Pre-emergence action against ECHCG in %,[5]; dosage 320 g/ha,100%
same,Pre-emergence action against LOLRI in %,[6]; dosage 80 g/ha,100%
same,Pre-emergence action against LOLRI in %,[6]; dosage 320 g/ha,100%
same,Pre-emergence action against MATIN in %,[7]; dosage 320 g/ha,100%
same,Pre-emergence action against PHBPU in %,[8],100%
same,Pre-emergence action against POLCO in %,[9]; dosage 320 g/ha,100%
same,Pre-emergence action against SETVI in %,[10]; dosage 80 g/ha,100%
same,Pre-emergence action against SETVI in %,[10]; dosage 320 g/ha,100%
same,Pre-emergence action against VERPE in %,[11],100%
same,Pre-emergence action against VIOTR in %,"[12]; 320 g/ha, Viola tricolor",100%
same,Pre-emergence action against VIOTR in %,[12]; dosage 80 g/ha,100%
same,Post-emergence action against ABUTH in %,[13]; 80 g/ha,90%
same,Post-emergence action against ABUTH in %,[13]; 320 g/ha,90%
same,Post-emergence action against ALOMY in %,[14]; 80 g/ha,100%
same,Post-emergence action against ALOMY in %,[14]; 320 g/ha,100%
same,Post-emergence action against AMARE in %,[15]; [30],100%
same,Post-emergence action against AVEFA in %,[16]; 320 g/ha,80%
same,Post-emergence action against ECHCG in %,[17]; dosage 80 g/ha,80%
same,Post-emergence action against ECHCG in %,[17]; dosage 320 g/ha,100%
same,Post-emergence action against LOLRI in %,[18]; dosage 80 g/ha,100%
same,Post-emergence action against LOLRI in %,[18]; dosage 320 g/ha,100%
same,Post-emergence action against POLCO in %,[19]; dosage 320 g/ha,90%
same,Post-emergence action against SETVI in %,[20]; dosage 80 g/ha,100%
same,Post-emergence action against SETVI in %,[20]; dosage 320 g/ha,100%
same,Post-emergence action against VERPE in %,"[21]; 320 g/ha, VERPE",80%
same,Post-emergence action against VIOTR in %,[22]; 80 g/ha,80%
same,Post-emergence action against VIOTR in %,[22]; 320 g/ha,90%
same,Post-emergence action against ORYSA in %,[23],0%
same,Post-emergence action against TRZAS in %,[24]; 80 g/ha,0%
same,Post-emergence action against TRZAS in %,[24]; 320 g/ha,0%
COC(=O)[C@@H](C)Oc1nn(-c2ncccc2F)c(-c2ccc(F)nc2)c1I [Example I-341],Pre-emergence action against ABUTH,[1]; [28],90%
same,Pre-emergence action against ABUTH,[1]; [29],90%
same,Pre-emergence action against ALOMY,[2]; 320 g/ha,100%
same,Pre-emergence action against AMARE in %,[3]; 80 g/ha,100%
same,Pre-emergence action against AMARE in %,[3]; 320 g/ha,100%
same,Pre-emergence action against AVEFA in %,[4]; 320 g/ha,90%
same,Pre-emergence action against ECHCG in %,[5]; dosage 80 g/ha,80%
same,Pre-emergence action against ECHCG in %,[5]; dosage 320 g/ha,100%
same,Pre-emergence action against LOLRI in %,[6]; dosage 80 g/ha,100%
same,Pre-emergence action against LOLRI in %,[6]; dosage 320 g/ha,100%
same,Pre-emergence action against MATIN in %,[7]; dosage 80 g/ha,90%
same,Pre-emergence action against MATIN in %,[7]; dosage 320 g/ha,100%
same,Pre-emergence action against PHBPU in %,[8],90%
same,Pre-emergence action against POLCO in %,[9]; dosage 80 g/ha,90%
same,Pre-emergence action against POLCO in %,[9]; dosage 320 g/ha,100%
same,Pre-emergence action against SETVI in %,[10]; dosage 80 g/ha,80%
same,Pre-emergence action against SETVI in %,[10]; dosage 320 g/ha,100%
same,Pre-emergence action against VERPE in %,[11],100%
same,Pre-emergence action against VIOTR in %,"[12]; 320 g/ha, Viola tricolor",100%
same,Pre-emergence action against VIOTR in %,[12]; dosage 80 g/ha,100%
same,Post-emergence action against ABUTH in %,[13]; 80 g/ha,80%
same,Post-emergence action against ABUTH in %,[13]; 320 g/ha,90%
same,Post-emergence action against ALOMY in %,[14]; 80 g/ha,80%
same,Post-emergence action against ALOMY in %,[14]; 320 g/ha,100%
same,Post-emergence action against AMARE in %,"[15]; 80 g/ha, visual rating about 3 weeks after treatment vs untreated controls (100% = plants have died, 0% = like control plants)",80%
same,Post-emergence action against AMARE in %,[15]; [30],80%
same,Post-emergence action against AVEFA in %,[16]; 80 g/ha,80%
same,Post-emergence action against AVEFA in %,[16]; 320 g/ha,80%
same,Post-emergence action against ECHCG in %,[17]; dosage 80 g/ha,100%
same,Post-emergence action against ECHCG in %,[17]; dosage 320 g/ha,100%
same,Post-emergence action against LOLRI in %,[18]; dosage 80 g/ha,90%
same,Post-emergence action against LOLRI in %,[18]; dosage 320 g/ha,90%
same,Post-emergence action against MATIN in %,[25],90%
same,Post-emergence action against PHBPU in %,[26]; dosage 80 g/ha,90%
same,Post-emergence action against PHBPU in %,[26]; dosage 320 g/ha,100%
same,Post-emergence action against POLCO in %,[19]; dosage 80 g/ha,80%
same,Post-emergence action against POLCO in %,[19]; dosage 320 g/ha,80%
same,Post-emergence action against SETVI in %,[20]; dosage 80 g/ha,80%
same,Post-emergence action against SETVI in %,[20]; dosage 320 g/ha,80%
same,Post-emergence action against VERPE in %,"[21]; 320 g/ha, VERPE",90%
same,Post-emergence action against VERPE in %,[21]; dosage 80 g/ha,90%
same,Post-emergence action against VIOTR in %,[22]; 80 g/ha,80%
same,Post-emergence action against VIOTR in %,[22]; 320 g/ha,80%
same,Post-emergence action against ORYSA in %,[23],0%
same,Post-emergence action against ZEAMX in %,[27],0%
